Results reported in PMC6304418, “A Novel Compound Targeting Protease Receptor 1 Activators for the Treatment of Glioblastoma” (Frontiers in Neurology, 2018).
“Also recorded” adds a separate entry of the source. Where a SMILES comes first, the peptide text is derived from it. The star is where a group is joined. Tos = Cc1ccc(S(=O)(=O)*)cc1; CH2Cl = ClC*

Legend:
[1] = system: human normal pooled citrated plasma; assay: Coagulation in plasma (PT, aPTT, TT)
Method: HemosIL normal control (Instrumentation Laboratory), was used as human normal pooled citrated plasma from healthy donors. The lyophilized human plasma containing buffer, stabilizers and preservatives, was reconstituted using standard laboratory methods. The plasma was exposed in-vitro to indicated concentrations of SIXAC for 10 min. Next, prothrombin time (PT), activated partial thromboplastin time (aPTT) and thrombin time (TT) were measured. All tests were carried out with an ACLTOP® 500 autoanalyzerat in the Sheba medical center (Israel) MegaLab according to standard operating procedures (SOP). The results represent an average of 5 measures.

[2] = system: CNS-1 inoculated Lewis rats; assay: Survival study in CNS-1 GBM rat model; format: in vivo
Method: (§1) Adult Lewis rats (270–335 g, Harlan, Jerusalem, Israel) were housed in a standard conditions and fed a standard diet. Water was available ad libitum. Ambient temperature was set to 22°C to 23°C with day/night light control. The protocols of this study were approved by the Sheba Medical Center Committee on the Use and Care of Animals (permit No: 972/15) according to the ARRIVE Guidelines. Maximum efforts were made in order to minimize suffering and pain. The humane endpoints were the inability to rise or ambulate and a severe weight loss (20% of initial body weight).
(§2) The rats were anesthetized via IM injection of Ketamine-Xylazine (100 mg/kg, 16 mg/kg, respectively). A midline scalp incision was made, and a 1 mm burr hole was drilled (coordinates 1 mm lateral × 3 mm posterior to the Bregma). Tumor implantation was performed using a 30 gauge needle attached to a 25 μl syringe containing 10 μl of CNS-1 pellet 5 × 10^7cells/ml. The rats were positioned into a stereotactic frame in order to inject the cells at the right corpus striatum 5.5 mm deep in the brain tissue. […] The needle was gently pulled out 1 min after the pump was stopped. The burr hole was then sealed with bone wax and the skin was sutured.
The animals were implanted with osmotic pumps attached to brain infusion tube (Alzet, Cupertino, CA, USA). Implantation was performed 5 days after tumor inoculation. Two different types of osmotic pump were used: in the imaging study the pumps implanted released 1 μl/h for 7 days (model #2001), while in the survival study the pumps released 0.5 μl/h for 14 days (model #2002). The pumps were preloaded with either saline or SIXAC (in indicated concentrations). The pumps were primed in saline bath at 37°C for 24 h as a pre-implantation procedure and the function of each pump was reassured by assessing dripping. The Alzet pump was implanted subcutaneously, a catheter was placed intracranially thus releasing substances directly to the tumor core.
(§3) Rats were allocated to three groups. 1. Control group (n = 15) treated with alzet-pumps contain saline. 2. Moderate dose treated group (n = 16) treated with alzet-pump containing SIXAC (2μg/kg/day). 3. High dose treated group (n = 14) treated with alzet-pumps contain SIXAC (20μg/kg/day). Survival was registered daily and the brains were dissected immediately after death determination and were placed in 4% PFA and kept at 4°C. Upon MRI scanning the brains were moved to PBS containing tubes, scanning was performed and ROI were quantified.

[3] = system: CNS-1 glioma in Lewis rats; assay: In-vivo imaging study (MRI) in CNS-1 GBM rat model
Method: as §1, §2
MRI was performed using a clinical interventional 1.5T MR system. The rats were anesthetized and Gd-based contrast agent was injected IP (Gd-DOTA, 0.02 mmol/kg, Dotarem, Guerbert). MRI sequences included contrast enhanced T1-weighted MRI for depiction of the tumor, T2-weighted MRI for depiction of edema and gradient-echo MRI for depiction of possible hemorrhages. The first MRI scan was used to rank the tumors into three categories based on the size evaluation in order to form groups with a similar distribution of initial tumor size. Regions of interest (ROIs) were plotted over enhanced T1 and T2 weighted MR images. The volume of the tumors, calculated from the T1-weighted images, was then subtracted from the enhancing volume, calculated from the T2-weighted images, in order to determine the volume of surrounding edema.
The animals were implanted with osmotic pumps attached to brain infusion tube (Alzet, Cupertino, CA, USA). Implantation was performed 5 days after tumor inoculation. […]
Rats were allocated to three groups. […] 7 days following induction of treatment (day 12) a follow-up MRI imaging (2nd) was performed and the size of the tumor and edema surrounding the tumor were analyzed by standard ROI manual techniques as described above. In order to eliminate the effect of initial tumor and edema sizes variance, the tumor and edema sizes increase were calculated by using the ratio of the 2nd MRI scan divided by the 1st MRI scan ([41], [42]).

CNS-1 colonies = assay: Colony formation assay; format: cell-based, rat; settings: SIXAC 1 μM, 5 days; colonies > 1 mm; control 13.9 ± 1.09; p = 0.033
Method: The cells were seeded in 6-well plates at a density of 100 cells/well. After 24 h, fresh medium with 1 μM SIXAC was added. Cells were incubated for 5 days, until colonies were formed. Cells were washed with PBS, stained with […] crystal violet (Sigma-Aldrich, C0075) in absolute ethanol for 20 min and then washed again with PBS and dried for 24 h. Colonies that were bigger than 1 mm were counted using Fiji software ([37]–[40]).

[4] = system: CNS-1 tumors in rat brains; assay: Histopathology of CNS-1 GBM rat brains (H&E, Ki67); format: in vivo
Method: as §3
Formalin-fixed, paraffin-embedded brains were serially sectioned into 4 μm sections and stained with Hematoxylin and Eosin (H&E). Tumor localization and detailed evaluation was conducted by a senior neuropathologist (NS). Mitosis rate was assessed manually by 2 observers who analyzed 10 fields from each examined brain. Serial 4 μm sections were used for immune-histochemical staining using a commercially available monoclonal rabbit anti-Ki67 antibody (clone SP6,# RM-9106-S, Thermo Scientific, 1:300) according to standard procedures and fully automated protocol. A positive control was added on the right side of the slides for immune-histochemistry. The slides were automatically scanned via Aperio Versa 200 System (leica) using X20 and X40 equivalent objectives. Digital images were captured with Leica DM6000B microscope by AperioImageScope software. The Ki67 index was defined as positive stained nuclei (DAB positive)/all stained nuclei. Ten fields from each tested brain were used for analysis of Ki67 index. The indices were automatically calculated by means of ImmunoRatio application (Version 1.0c) ([43]).

In the case of `Cc1ccc(S(=O)(=O)N[C@@H](C)C(=O)N[C@H](C(=O)N[C@@H](CC(C)C)C(=O)N[C@@H](CC(=O)O)C(=O)N2CCC[C@H]2C(=O)N[C@@H](CCCNC(=N)N)C(=O)CCl)[C@@H](C)O)cc1` [SIXAC] (Tos-ATLDPR-CH2Cl), the “margin of coagulation-affecting concentration over IC50 for thrombin inhibition” value ([1]; 10^−4M vs. IC50 for thrombin inhibition) is reported as “at least 4.5 orders of magnitude”, the “concentration at which coagulation tests (PT, aPTT, TT) are affected” value ([1]; human plasma exposed 10 min, affected only at this concentration, average of 5 measures) is reported as 10^−4 M and the “effect on PT, aPTT and TT (in words)” value ([1]; human plasma exposed 10 min, concentrations equivalent to those used to treat animals, average of 5 measures) is reported as “no clinical significant effects; also recorded: The effect was minimal for the therapeutic dosages used in the experiment”. The “survival, combined SIXAC groups relative to controls (in words)” value ([2]; 2μg/kg/day and 20μg/kg/day combined) was “robust effect of treatment”, the “survival rate vs. saline, moderate dose (in words)” value ([2]; 2μg/kg/day, log-rank test, one tailed p = 0.01) was “significantly prolonged in comparison to the saline treated group” and the “median survival, high dose” value ([2]; 20μg/kg/day, intracranial Alzet pump, 14 days, n = 14, control 16 days, log-rank one tailed p < 0.05) was 17 days. The “survival rate vs. saline, high dose (in words)” value ([2]; 20μg/kg/day, log-rank test, one tailed p < 0.05) was “less pronounced effect for the high dose group”, the “survival, trend over three groups (in words)” value ([2]; saline, 2μg/kg/day, 20μg/kg/day, log-rank test for trend p = 0.030) was “significant trend of prolonged survival” and the “tumor enhancement means of ratios, moderate dose vs. low dose and saline (in words)” value ([3]; 2μg/kg/day vs. 0.2μg/kg/day and saline) was “non-significant reduction in tumor enhancement means of ratios”. For the same compound, the “edema means of ratios, moderate dose vs. low dose and saline (in words)” value ([3]; 2μg/kg/day vs. 0.2μg/kg/day and saline, p < 0.05) was “Significant reduction in edema means of ratios”, the “edema volume ratio (2nd/1st MRI, T2)” value ([3]; 2μg/kg/day, intracranial Alzet pump, 7 days, day 12/day 5, n = 9, control 8.8 ± 1.9, p < 0.04 (t-test)) was 4.9 ± 1 and the “tumor volume ratio (2nd/1st MRI, enhancing lesions, T1)” value ([3]; 2μg/kg/day, intracranial Alzet pump, 7 days, day 12/day 5, n = 9, control 12.2 ± 2.4, p = 0.16 (t-test)) was 9.8 ± 1.2. For the same compound, the “number of formed colonies” value (CNS-1 colonies) was 10.5 ± 1.06, the “mitosis rate (number of mitosis/field, H&E)” value ([4]; SIXAC treated rats, 10 fields per brain, mean ± SEM, control 7.75 ± 1.45, p = 0.03) was 4.9 ± 0.2 mitosis/field and the Ki67 index ([4]; SIXAC treated rats, positive/all stained nuclei, ImmunoRatio, ten fields per brain, mean ± SEM, control 21.55 ± 0.11, p < 0.001) was 12.74 ± 0.23. For the same compound, the “H&E finding in a long survivor rat” value ([4]; high dose 20μg/kg/day long survivor, sacrificed at day 40) was “large cystic area containing residual tissue with foamy macrophages”.
